The text below walks through data of patent US20120295935A1, “MIXED AMINAL PHARMACEUTICAL COMPOSITIONS AND USES THEREOF” (priority 2010, published 2012).

Experiment [1] concerns MC3T3 E1 osteoblast-like cells. Kind of experiment: Western blot of eIF2α-p, ATF4, CHOP and caspase 3 proteins in response to thapsigargin. The format is cell-based, mouse. The protocol: At higher doses of 10 and 100 nM, the levels of eIF2α-p and ATF4 proteins were elevated (FIG. 3A). Thapsigarin is known to induce apoptosis when administered above a threshold concentration.
On the technique in general: A western blot detects proteins with antibodies after separation by electrophoresis.

In experiment [2] the test system is MC3T3 cells. Kind of experiment: Cell proliferation and death. The note with it: 1 h incubation with 10 nM (mild ER stress). The format is cell-based.
In experiment [3] the test system is MC3T3 cells. Briefly: mRNA expression levels by real-time PCR. The format is cell-based, mouse. The protocol:
Responses to Administration of Thapsigargin—Upregulation of transcription factors linked to bone formation as well as PERK: The effects of 10 nM thapsigargin on mRNA expression levels of ISR-linked genes (ATF4, ATF3, and CHOP) as well as genes involved in bone remodeling (Runx2, Osterix, and Rank1), were examined (FIG. 5). […] Out of 4 transcription factors (ATF4, ATF3, Runx2, and Osterix), the level of ATF4 mRNA was elevated 2-4 fold throughout the treatments. […] The mRNA level of type 1 collagen was elevated 5 h and 10 h for T1h (1 h exposure at 10 nM).
Responses to Administration of Salubrinal—In vitro responses to salubrinal: In order to evaluate the effects of salubrinal, MC3T3 E1 osteoblast-like cells and MLO-A5 osteocyte cells (Barragan-Adjemian, C., et al., “Mechanism by which MLO-A5 late osteoblasts/early osteocytes mineralize in culture: similarities with mineralization of lamellar bone,” Calcif. Tissue Int. 79:340-353 (2006)) were incubated with salubrinal at 100 nM-50 μM for 1-24 h. The mRNA levels of the selected genes, TF4, ATF3, Osteocalcin (OCN), and CHOP, were determined by real-time PCR. […] In MC3T3 cells, for instance, the Osteocalcin mRNA level, which is regulated by ATF4 and Runx2 (Xiao et al. 2005), was elevated 11.8±0.2 fold at 10 μM salubrinal in 24 h.

For experiment [4], the system named is MC3T3 cells. Briefly: Phosphorylation of eIF2α kinases (PERK, PKR) and MAP kinases (p-38 MAPK, ERK1/2). The format is cell-based, mouse. The note with it: 10 nM, 1 h exposure. As for the experimental part: In response to T1h (1 h exposure at 10 nM), the level of phosphorylation of two eIF2α kinases (PERK and PKR), and two MAP kinases (p-38 MAPK and ERK1/2) was examined (FIG. 6).

The test system of experiment [5] is MC3T3 cells. Kind of experiment: mRNA expression levels by real-time PCR. The format is cell-based, mouse. The note with it: 1-100 nM for 1-24 h.

“Also recorded” adds a separate entry of the source.

`C/C=C(/C)C(=O)O[C@H]1C(C)=C2[C@H]([C@@H]1OC(=O)CCCCCCC)[C@@](C)(OC(C)=O)C[C@H](OC(=O)CCC)[C@@]1(O)[C@H]2OC(=O)[C@@]1(C)O` [thapsigargin]: in experiment [1] (10 nM), the CHOP protein level result is “started to increase after 3 h”, the “Pro-caspase 3 level” value is “not significantly altered” and the “cleaved caspase 3 (active form) level” value is on record as “increased after 24 h”. In experiment [1] (10 and 100 nM), the ATF4 protein level result is “elevated” and the eIF2α-p protein level result is given as “elevated”. Also, in experiment [1] (lower dosages below 0.1 nM), the ATF4 protein level entry is listed as “no detectable upregulation” and the eIF2α-p protein level entry is listed as “no detectable upregulation”. Besides, in the experiment with MC3T3 cells [2], the “numbers of live and dead cells (cell number or mortality)” value was “does not alter; also recorded: no significant difference”. Moreover, in the experiment with MC3T3 cells [3] (10 nM), the “ATF3 mRNA level” value is recorded as 100-1000 times; the “CHOP mRNA level” value is given as 10-35 fold; the “Osterix mRNA” value was “enhanced at 1 h”; the “Runx2 mRNA increase” value was “started at 3 h and peaked at 5 h”. Besides, the “ATF4 mRNA level” value in the experiment on MC3T3 cells [3] (10 nM, 1, 2 and 3 h exposures) is on record as 2-4 fold. Further, in the experiment on MC3T3 cells [3] (3 h for T2h and 10 h for T3h, 10 nM), the “Rank1 mRNA” value is on record as “significantly up”. Moreover, in the experiment with MC3T3 cells [3] (5 h and 10 h for T1h (1 h exposure at 10 nM)), the “type 1 collagen mRNA level” value is reported as “elevated”. In the experiment on MC3T3 cells [4], the p-ERK1/2 level result is listed as “not altered; also recorded: unchanged”, the p-PERK level entry was “elevated; also recorded: Activation”, the p-PKR level result is on record as “not altered; also recorded: unchanged” and the “p-p38 MAPK level” value is reported as “elevated; also recorded: Activation”. In addition, the “Osteocalcin mRNA level” value in the experiment with MC3T3 cells [5] is “did not increase”.
